According to ChEMBL document CHEMBL4130521, “Artificial Macrocycles as Potent p53-MDM2 Inhibitors” (ACS Med Chem Lett, 2017):

Target: E3 ubiquitin-protein ligase Mdm2 (Homo sapiens, UniProt Q00987)
Sequence (Q00987 whole entry): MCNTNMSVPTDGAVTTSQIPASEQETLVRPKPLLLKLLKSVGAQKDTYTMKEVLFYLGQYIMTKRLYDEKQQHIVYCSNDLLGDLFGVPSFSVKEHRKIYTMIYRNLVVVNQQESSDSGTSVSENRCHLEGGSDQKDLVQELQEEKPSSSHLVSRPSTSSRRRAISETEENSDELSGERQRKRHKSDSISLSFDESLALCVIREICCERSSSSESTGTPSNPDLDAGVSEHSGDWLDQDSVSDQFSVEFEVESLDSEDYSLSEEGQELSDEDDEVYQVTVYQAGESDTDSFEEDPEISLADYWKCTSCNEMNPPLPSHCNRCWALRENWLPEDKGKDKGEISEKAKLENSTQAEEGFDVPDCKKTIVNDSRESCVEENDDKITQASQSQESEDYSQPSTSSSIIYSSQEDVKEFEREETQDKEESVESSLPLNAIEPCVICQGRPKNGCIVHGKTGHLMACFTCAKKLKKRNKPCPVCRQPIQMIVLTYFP

Ki	Compound
Not Active	O=C(O)c1[nH]c2cc(Cl)ccc2c1C1C(=O)NCCCCCCCCCCCCCC(=O)N1Cc1ccc(F)cc1 (stereo not drawn)
Not Active	O=C(O)c1[nH]c2cc(Cl)ccc2c1C1C(=O)NCCCCCCCCCCCCCC(=O)N1Cc1ccc(Cl)cc1 (stereo not drawn)
Not Active	CCOC(=O)c1[nH]c2cc(Cl)ccc2c1C1C(=O)NCCCCCCCCCCCCCCCCCCCC(=O)N1Cc1ccc(OCc2ccc(Cl)c(Cl)c2)cc1 (stereo not drawn)
